Values quoted from earlier work as cited in paper PMC12296474, “Nano-Amounts of Glucagon Premixed With Fast-Acting Insulin Lispro: Effect on Insulin Absorption in Pigs” (Current Therapeutic Research, Clinical and Experimental, 2025).

Test system: subcutaneous blood flow
Details: healthy subjects
Method: We focused our proof-of-concept experiments on adding nanogram doses of glucagon to Lyumjev^Ⓡ, the most fast-acting insulin formulation available on the market. As previously discussed, we believe glucagon may increase insulin absorption through significant but very localized subcutaneous vasodilation. Therefore, it is noteworthy that when glucagon was added to Lyumjev^Ⓡ, an insulin formulation that already contains 10 ng of the vasodilator treprostinil per unit of insulin, we observed even faster insulin absorption. This effect was not observed in experiments with glucagon added to Humalog^Ⓡ. ...

## glucagon
  Enhancement of subcutaneous blood flow: 4% to 500
